Where two headings read alike, the source gives them in different places. *1 amine or outer side, *2 acyl side, *3 side chain or, on linkers, in order; H or OH if unused. Where a SMILES comes first, the peptide text is derived from it. [ ]: non-standard residue; d: D form. The star is where a group is joined. X1 = O=C([C@@H](O)[C@H](Cc1ccccc1)N[*:1])[*:2]; PhAc = O=C(Cc1ccccc1)*
What was measured:
[1] = biological target: T1, chemically synthesized HIV protease (Human immunodeficiency virus type 1 group M subtype B, UniProt P12497, C555A/C583A); type: biochemical
T1 construct: The HIV protease was chemically synthesized; made in house; host or cells: chemical (peptide) synthesis, no expression host
Method: (§1) The HIV protease was chemically synthesized by replacement of two cysteine residues in the natural sequence [Science, 230, 949 (1985)] with alanine residues. The reaction mixture contained 100 mM MES buffer (pH 5.5), 40 mM of substrate (Ac-[…]NH, trifluoroacetate), inhibitors at varying concentrations dissolved in DMSO and 9.2 μg of the HIV protease in a total volume of 15 μl. Incubation was carried out at 37° C. for 60 min. The reaction was started by the addition of the enzyme and terminated by 15 μl of acetonitrile. The amount of a fragment peptide produced was measured by reversed-phase HPLC analysis using an internal standerd. The HPLC condition was as followes.
Solvent A: 0.1% trifluoroacetic acid aqueous solution
Gradient: B was increased in 1.0%/min from 100% of A,

[2] = biological target: recombinant HIV protease (Human immunodeficiency virus type 1 group M subtype B, UniProt P12497); conditions: inhibitor 5 μM (final concentration); 2.0 μg enzyme
Method: as §1

[3] = inhibitor 5 μM (final concentration)

| Compound | Residual Activity (%) ([1]; inhibitor 50 nM) | Residual Activity (%) [1, 3] | also measured |
| --- | --- | --- | --- |
| 1-Isoquinolinecarbonyl-Asn-(2S,3S)-AHPBA-Pro-NH-tBu [Example 140] | 72.8% | – | – |
| 1-NaPhthoxyacetyl-Prg-(2S,3S)-AHPBA-Thz-NH-tBu [Example 180] | 26.0% | – | – |
| 1-Naphtboxyacetyl-Msv-(2S,3S)-AHPBA-Thz-NH-tBu [Example 155] | 7.3% | – | – |
| 1-Naphthoxyacetyl-Ile-(2S,3S)-AHPBA-Thz-NH-tBu [Example 161] | 7.0% | – | – |
| 1-Naphthoxyacetyl-Msa-(2S,3S)-AHPBA-Dmp-NH-tBu [Example 183] | 4.3% | – | – |
| 1-Naphthoxyacetyl-Msa-(2S,3S)-AHPBA-Thz-NH-chex-ol [Example 158] | – | < 10% | – |
| 1-Naphthoxyacetyl-Msa-(2S,3S)-AHPBA-Thz-Pip-O--CH3 [Example 159] | 90.8% | – | – |
| 1-Naphthoxyacetyl-Mta-(2S,3S)-AHPBA-Thz-NH-tBu [Example 162] | 2.9% | – | – |
| 1-Naphthoxyacetyl-Mtv-(2S,3S)-AHPBA-Thz-NH-tBu [Example 154] | 35.4% | – | – |
| 1-Napthoxyacetyl-Sma-(2S,3S)-AHPBA-Pro-NH-tBu [Example 98] | 70.5% | – | – |
| 2-Naphthoxyacetyl-Msa-(2S,3S)-AHPBA-Pro-NH-tBu [Example 131] | 28.8% | – | – |
| 2-Quinolinecarbonyl-Asn-(2S,3S)-AHPBA-Dtc-NH-tBu [Example 118] | 1.8% | – | – |
| 3-Phenylpropionyl-Msa-(2S,3S)-AHPBA-Pro-Ile-Val-NH2 [Example 62] | – | 3.2% | – |
| 3-Phenylpropionyl-Smc(O)-(2S,3S)-AHPBA-Pro-Ile-Val-NH2 [Example 61] | – | 90.9% | – |
| 5Isoquinoline-O--CH2 CO-Asn-(2S,3S)-AHPBA-Thz-NH-tBu [Example 192] | – | – | inhibitory activity against the HIV protease ([1]; expected, compound only said to be preparable): high inhibitory activity |
| CC[C@H](C)[C@H](NC(=O)[C@@H]1CCCN1C(=O)[C@@H](O)[C@H](Cc1ccccc1)NC(=O)[C@H](CO)NC(=O)Cc1ccccc1)C(=O)N[C@H](C(N)=O)C(C)C [Example 20, Phenylacetyl-Ser-(2S,3S)-AHPBA-Pro-Ile-Val-NH2] (PhAc-S[X1]PIV-NH2) | – | 42.8% | Residual Activity (%) ([1]; inhibitor 1 mM): 2.8% |
| CC(C)(C)NC(=O)[C@@H]1CCCN1C(=O)[C@@H](O)[C@H](Cc1ccccc1)NC(=O)[C@H](CC(N)=O)NC(=O)OCc1ccccc1 [Example 55, Benzyloxycarbonyl-Asn-(2S,3S)-AHPBA-Pro-NH-tBu] | – | 3.5% | – |
| CC(C)(C)NC(=O)[C@@H]1CCCN1C(=O)[C@H](O)[C@H](Cc1ccccc1)NC(=O)[C@H](CC(N)=O)NC(=O)OCc1ccccc1 [Example 56, Benzyloxycarbonyl-Asn-(2R,3S)-AHPBA-Pro-NH-tBu] | – | 95.1% | – |
| NC(=O)C[C@H](NC(=O)OCc1ccccc1)C(=O)N[C@@H](Cc1ccccc1)[C@H](O)C(=O)N1CCC[C@H]1C(=O)NC1CCCCC1 [Example 84, Benzyloxycarbonyl-Asn-(2S,3S)-AHPBA-Pro-NH--C6 H11] | – | 9.6% | – |
| CC(C)NC(=O)[C@@H]1CCCN1C(=O)[C@@H](O)[C@H](Cc1ccccc1)NC(=O)[C@H](CC(N)=O)NC(=O)OCc1ccccc1 [Example 85, Benzyloxycarbonyl-Asn-(2S,3S)-AHPBA-Pro-NH--CH(CH3)2] | – | 10.0% | – |
| CC(C)(C)NC(=O)[C@@H]1CCCN1C(=O)[C@@H](O)[C@H](Cc1ccccc1)NC(=O)[C@H](CS(C)(=O)=O)NC(=O)OCc1cccc2ccccc12 [Example 90, 1-Naphthylmethyloxycarbonyl-Msa-(2S,3S)-AHPBA-Pro-NH-tBu] | – | 1.5% | – |
| Benzyloxycarbonyl-Asn-(2S3S)-AHPBA-Pro-NHsBu [Example 176] | 82.6% | – | – |

| Compound | Residual Activity (%) ([1]; inhibitor 50 nM) | Residual Activity (%) [1, 3] | also measured |
| --- | --- | --- | --- |
| Benzyloxycarbonyl-Asn-(2S,3S)-AHPBA-(D)-Pip-NH-tBu [Example 79] | – | 84.0% | – |
| Benzyloxycarbonyl-Asn-(2S,3S)-AHPBA-Cpp-NH-tBu [Example 185] | 96.0% | – | – |
| Benzyloxycarbonyl-Asn-(2S,3S)-AHPBA-Dtc-NH-tBu [Example 104] | 3.8% | – | – |
| Benzyloxycarbonyl-Asn-(2S,3S)-AHPBA-Pro-Aib-NH2 [Example 93] | – | < 10% | – |
| Benzyloxycarbonyl-Asn-(2S,3S)-AHPBA-Pro-Ile-NH--CH2 --C6 H11 [Example 32] | – | 4.0% | residual enzymic activity [2]: 11.0% |
| Benzyloxycarbonyl-Asn-(2S,3S)-AHPBA-Pro-NH--C(CH3)2 --CH2 OH [Example 99] | 62.2% | – | – |
| Benzyloxycarbonyl-Asn-(2S,3S)-AHPBA-Pro-NH--CH2 --C(CH3)3 [Example 83] | – | 12.4% | – |
| Benzyloxycarbonyl-Asn-(2S,3S)-AHPBA-Pro-NH--CH(C2 H5)2 [Example 89] | – | < 10% | – |
| Benzyloxycarbonyl-Asn-(2S,3S)-AHPBA-Pro-NH-cycloropyl [Example 88] | – | < 10% | – |
| Benzyloxycarbonyl-Asn-(2S,3S)-AHPBA-Pro-NH-tAmyl [Example 87] | – | 5.8% | – |
| Benzyloxycarbonyl-Asn-(2S,3S)-AHPBA-Thz-NH-tBu [Example 82] | – | 1.3% | – |
| Benzyloxycarbonyl-Val-(2R,3S)-AHPBA-Phe-NH--CH2 --CH(CH3)2 [Example 54] | – | 84.9% | – |
| Benzyloxycarbonyl-Val-(2R,3S)-AHPBA-Phe-Val-NH--CH2 --CH(CH3)2 [Example 53] | – | 83.4% | – |
| Benzyloxycarbonyt-Asn-(2S,3S)-AHPBA-Ccp-NH-tBu [Example 187] | 99.0% | – | – |
| Bis(4-chlorophenyl)methyloxyacetyl-Asn-(2S,3S)-AHPBA-Pro-NH-tBu [Example 94] | 37.0% | – | – |
| Boc-Sma-(2S,3S)-AHPBA-Pro-NH-tBu [Example 97] | – | 92.9% | – |
| Furancarbonyl-Asn-(2S,3S)-AHPBA-Pro-Ile-Val-NH2 [Example 65] | – | 9.3% | – |
| PhCH2 -O--CO-Asn-(2S,3S)-AHPBA-(D)-Tic-NH-tBu [Example 103] | 91.4% | – | – |
| PhCH2 -O--CO-Asn-(2S,3S)-AHPBA-(L)-Tic-NH-tBu [Example 102] | 89.2% | – | – |
| PhCH2 -O--CO-Asn-(2S,3S)-AHPBA-Pro-NH--CH2 --C6 H11 [Example 49] | – | 51.9% | – |
| Thiophenecarbonyl-Asn-(2S,3S)-AHPBA-Pro-Ile-Val-NH2 [Example 67] | – | 4.9% | – |

From patent US6313094A, “β-amino-α-hydroxycarboxylic acid derivatives and HIV protease inhibitors” (priority 1990, dated 2001)
